Laboratory results published in ChEMBL document CHEMBL3046810, “Total synthesis of cis-solamin and its inhibitory action with bovine heart mitochondrial complex I” (Tetrahedron, 2004).

What follows are compounds tested against NADH-ubiquinone oxidoreductase chain 1 (Bos taurus, UniProt P03887) (assay: Inhibition of Bos taurus (bovine) mitochodrial complex 1 isolated from heart submitochondrial particle by NADH oxidase assay).
Sequence of NADH-ubiquinone oxidoreductase chain 1 (P03887 whole entry): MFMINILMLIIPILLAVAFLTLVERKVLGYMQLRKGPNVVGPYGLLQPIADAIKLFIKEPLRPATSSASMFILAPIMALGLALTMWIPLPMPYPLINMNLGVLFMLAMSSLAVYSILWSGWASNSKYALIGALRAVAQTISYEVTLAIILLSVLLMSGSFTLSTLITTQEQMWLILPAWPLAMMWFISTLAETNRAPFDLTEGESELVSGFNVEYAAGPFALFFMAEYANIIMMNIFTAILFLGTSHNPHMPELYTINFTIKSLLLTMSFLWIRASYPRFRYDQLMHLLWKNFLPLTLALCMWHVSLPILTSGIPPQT

First: CCCCCCCCCCCC[C@H](O)[C@@H]1CC[C@H]([C@H](O)CCCCCCCCCCCCC2=C[C@H](C)OC2=O)O1 (stereo in doubt; 1a) [CIS-SOLAMIN]
Second: CCCCCCCCCCCC[C@H](O)[C@H]1CC[C@H]([C@H](O)CCCCCCCCCCCCCCC2=C[C@H](C)OC2=O)O1 [(17R,18R,21R,22S)-reticulation-1]
The IC50 of the first is 7.3-fold lower: 2.2 nM for the first, 16 nM for the second. The first is the more potent here.

Going from `CCCCCCCCCCCC[C@H](O)[C@@H]1CC[C@H]([C@H](O)CCCCCCCCCCCCC2=C[C@H](C)OC2=O)O1` (stereo in doubt; 1b) [CIS-SOLAMIN] to `CCCCCCCCCCCC[C@@H](O)[C@H]1CC[C@H]([C@@H](O)CCCCCCCCCCCCCCC2=C[C@H](C)OC2=O)O1` [(17S, 18S, 21S, 22R)-reticulation-1], the IC50 rises from 2.1 nM to 17 nM (8.1-fold).

`CCCCCCCCCCCC[C@@H](O)[C@H]1CC[C@H]([C@H](O)CCCC[C@@H](O)CCCCCCCC2=C[C@H](C)OC2=O)O1` [(10S)-COROSSOLINE] and `CCCCCCCCCCCC[C@@H](O)[C@H]1CC[C@H]([C@H](O)CCCC[C@H](O)CCCCCCCC2=C[C@H](C)OC2=O)O1` [COROSSOLINE] are within 1.5-fold of each other in IC50: 2 nM for the first, 1.5 nM for the second.

`CCCCCCCCCC[C@H](O)[C@H]1CC[C@H]([C@H]2CC[C@H]([C@H](O)CCCCCCCCCC[C@@H](O)CC3=C[C@H](C)OC3=O)O2)O1` [BULLATACIN] was tested, and the IC50 was 0.8 nM.
